Laboratory results taken from patent EP4043466B1, “PRC2 INHIBITORS” (Mirati Therapeutics, Inc., priority 2018, dated 2019).

What was measured:
[1] = system: PRC2-mediated histone H3 methylation; assay: Tri-Methyl Histone H3 (Lys 27) Sandwich ELISA in Pfeiffer cells: inhibition of PRC2-mediated histone H3 methylation; assay type: cell-based, human; conditions: Homo sapiens; Inhibition of EZH2-mediated histone H3 trimethylation; Pfeiffer cells (EZH2 A677G), 96 hours incubation
Description: The Pfeiffer cell line was established from a […] from a patient having metastatic diffuse large B-cell lymphoma (DLBCL). This cell line expresses a mutant form of the EZH2 enzyme (A677G) that results in enhanced EZH2 activity leading to increased methylation of histone H3 Lys27. Increased trimethylation of histone H3 Lys27 is believed to be implicated in tumorgenesis and poor clinical prognosis in lymphomas (McCabe et al., (2012) Nature 492:108-112).
Inhibition of PRC2-mediated histone H3 methylation by compounds of Formula (I) was measured by ELISA using a Tri-Methyl Histone H3 (Lys 27) Sandwich ELISA Kit (Cell Signaling Tech #7866C) in accordance with the manufacturer's instructions. Briefly, Pfeiffer cells were cultured in RPMI medium supplemented with 10% fetal bovine serum and 1% penicillin and 1% streptomycin in 96 well culture plates at 37°C to a density of 8000 cells/90µl/well and the cells were harvested. A series of 3-fold serial dilutions of each test compound of Formula (I) were prepared in RPMI medium and added to the cells at final concentrations ranging from 1µM to 0.15 nM. The plates were incubated at 37°C for 96 hours.
After incubation, the cells were pelleted by centrifugation in a pre-cooled 4°C rotor at 1, 100 rpm for 10 min and the supernatant was removed by aspiration. The cell pellet was resuspended in 55µl of Lysis Buffer (0.4M HCl) and incubated on ice with periodic shaking for 30 minutes. The lysed cells were subjected to centrifugation at 4, 200 rpm for 10 min at 4°C and the supernatant containing acid-soluble proteins was collected and the remainder discarded. The acid-soluble proteins were brought to a neutral pH by the addition of 20 µl of Neutralization Buffer (1 M Sodium phosphate, dibasic (pH 12.5), 2.5 mM DTT and 1 mM PMSF) and the neutralized lysates were analyzed by ELISA.
A 65 µl aliquot of each cell lysate was added to a well of a microwell strip, the microwells were sealed using tape and incubated either at 37°C for two hours or at 4°C overnight. After incubation, the tape was removed at the microwells were washed four times using 200 µl of 1X Wash Buffer. To each washed microwell, a 100 µl aliquot of an antitrimethyl histone H3 Lys27 Detection Antibody solution was added and the microwells were incubated at 37°C for one hour. The Detection Antibody solution was removed by aspiration and the wells were washed four times each using 200 µl of 1X Wash Buffer.
A 100 µl aliquot of an HRP-linked secondary antibody was added to each well, the wells were sealed with tape and incubated at 37°C for 30 min. The HRP-linked secondary antibody solution was removed by aspiration and the wells were washed four times using 200 µl of 1X Wash Buffer. A 100 µl aliquot of a TMB substrate was added to each well, the wells were sealed with tape and incubated at 37°C for 10 min or 25°C for 30 min. The reaction was stopped by the addition of 100 µl aliquot of a STOP solution and the plate was shaken briefly. The degree of histone H3 trimethylation was determined using a spectrophotometric readout by measuring the absorbance at 450 nm and then calculating the amount of trimethylated histone H3. A = ≤100 nM; B = >100 nM - ≤500 nM; C = >500 nM and N.D. = not determined.

[2] = target: purified human, His-tagged PRC2 complex (Homo sapiens, UniProt O75530+Q15910); assay: Hot Spot HMT assay: inhibition of PRC2 enzymatic activity (transfer of tritiated methyl from SAM to core histone, filter binding); assay type: biochemical; conditions: Inhibition of PRC2-mediated enzymatic activity; 10 nM PRC2 complex, 0.05 mg/ml core histone H3, 1 uM 3H-SAM, 1 hr at 30°C
Summary of the method: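 Serial compound dilutions starting at 1.0 µM were pre-incubated 20 min at 30°C with 10 nM complex (His-EZH2, Flag-EED, His-SUZ12, His-AEBP2, His-RbAp48) and 0.05 mg/ml core H3. Reaction ran 1 hr at 30°C after adding 1 uM [3H]-SAM; scintillation counting followed filtration.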

Karpas 422 cells = assay: Karpas 422 cell viability, CTG (Cell Titre Glo) assay; assay type: cell-based, human; conditions: Homo sapiens; Inhibition of proliferation of Karpas 422 cells (EZH2 Y641N); viability measured Day 4, Day 7 or Day 11, time point of the tabulated values not stated
Summary of the method: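 CellTiter-Glo viability IC50s taken at Day 4, Day 7 and Day 11 of continuous compound exposure (3-fold series, 10µM top, 1.5nM lowest) in RPMI/20% FBS at 37 °C. Y641N-mutant EZH2 lymphoma line seeded at 1000 cells per well; medium and compound replaced on Day 7 for Day 11 read.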

Chain of purified human, His-tagged PRC2 complex (Q15910 whole entry): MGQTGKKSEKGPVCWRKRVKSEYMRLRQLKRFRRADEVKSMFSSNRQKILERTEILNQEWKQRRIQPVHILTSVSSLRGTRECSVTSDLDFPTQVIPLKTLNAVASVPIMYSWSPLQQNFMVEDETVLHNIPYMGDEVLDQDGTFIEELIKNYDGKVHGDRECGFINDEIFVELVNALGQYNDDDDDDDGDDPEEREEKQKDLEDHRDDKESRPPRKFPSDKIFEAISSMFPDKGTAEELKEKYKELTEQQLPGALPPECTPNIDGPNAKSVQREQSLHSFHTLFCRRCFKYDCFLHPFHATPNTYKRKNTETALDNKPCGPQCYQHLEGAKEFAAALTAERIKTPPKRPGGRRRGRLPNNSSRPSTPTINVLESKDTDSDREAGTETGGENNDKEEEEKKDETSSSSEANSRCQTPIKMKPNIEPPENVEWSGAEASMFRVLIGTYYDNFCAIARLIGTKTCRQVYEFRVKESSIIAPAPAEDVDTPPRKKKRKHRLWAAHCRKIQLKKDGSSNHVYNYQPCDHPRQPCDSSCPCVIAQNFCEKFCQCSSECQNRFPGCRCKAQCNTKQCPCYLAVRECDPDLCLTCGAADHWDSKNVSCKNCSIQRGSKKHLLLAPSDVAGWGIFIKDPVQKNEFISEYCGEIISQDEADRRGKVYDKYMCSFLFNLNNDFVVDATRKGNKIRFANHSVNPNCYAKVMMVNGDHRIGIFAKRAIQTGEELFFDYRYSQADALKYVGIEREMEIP
Chain of purified human, His-tagged PRC2 complex (O75530 whole entry): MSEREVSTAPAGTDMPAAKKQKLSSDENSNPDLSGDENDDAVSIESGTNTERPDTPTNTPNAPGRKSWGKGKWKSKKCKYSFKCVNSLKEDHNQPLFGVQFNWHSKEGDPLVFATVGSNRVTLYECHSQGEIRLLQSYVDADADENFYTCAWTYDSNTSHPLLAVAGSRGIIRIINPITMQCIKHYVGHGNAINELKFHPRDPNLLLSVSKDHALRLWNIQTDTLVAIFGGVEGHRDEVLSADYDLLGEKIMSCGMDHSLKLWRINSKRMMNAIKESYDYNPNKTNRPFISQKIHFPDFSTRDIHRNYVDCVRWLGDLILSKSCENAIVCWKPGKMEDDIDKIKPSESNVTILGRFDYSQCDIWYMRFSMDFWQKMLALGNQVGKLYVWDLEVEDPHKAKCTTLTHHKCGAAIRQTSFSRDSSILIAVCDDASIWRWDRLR
Chain of purified human, His-tagged PRC2 complex (Q15022 whole entry partner): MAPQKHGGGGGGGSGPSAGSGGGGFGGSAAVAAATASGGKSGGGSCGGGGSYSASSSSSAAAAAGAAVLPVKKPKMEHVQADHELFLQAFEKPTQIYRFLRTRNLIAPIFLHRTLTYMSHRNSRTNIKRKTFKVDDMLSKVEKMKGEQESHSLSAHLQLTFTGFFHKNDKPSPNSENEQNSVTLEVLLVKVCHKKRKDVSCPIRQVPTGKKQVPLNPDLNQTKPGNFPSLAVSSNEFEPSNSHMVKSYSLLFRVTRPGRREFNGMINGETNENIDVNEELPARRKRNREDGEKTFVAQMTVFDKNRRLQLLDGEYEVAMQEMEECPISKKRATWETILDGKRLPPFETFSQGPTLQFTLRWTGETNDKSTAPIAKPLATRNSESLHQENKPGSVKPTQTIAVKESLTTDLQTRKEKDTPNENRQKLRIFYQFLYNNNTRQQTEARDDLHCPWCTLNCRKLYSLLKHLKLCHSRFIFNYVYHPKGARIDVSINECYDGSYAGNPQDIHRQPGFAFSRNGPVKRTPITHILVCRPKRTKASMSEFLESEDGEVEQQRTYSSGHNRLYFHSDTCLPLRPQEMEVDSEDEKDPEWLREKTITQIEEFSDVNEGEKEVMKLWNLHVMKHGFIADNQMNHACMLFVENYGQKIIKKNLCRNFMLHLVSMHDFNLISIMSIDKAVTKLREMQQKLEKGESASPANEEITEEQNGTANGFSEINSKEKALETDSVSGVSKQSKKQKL
Chain of purified human, His-tagged PRC2 complex (Q6ZN18 whole entry partner): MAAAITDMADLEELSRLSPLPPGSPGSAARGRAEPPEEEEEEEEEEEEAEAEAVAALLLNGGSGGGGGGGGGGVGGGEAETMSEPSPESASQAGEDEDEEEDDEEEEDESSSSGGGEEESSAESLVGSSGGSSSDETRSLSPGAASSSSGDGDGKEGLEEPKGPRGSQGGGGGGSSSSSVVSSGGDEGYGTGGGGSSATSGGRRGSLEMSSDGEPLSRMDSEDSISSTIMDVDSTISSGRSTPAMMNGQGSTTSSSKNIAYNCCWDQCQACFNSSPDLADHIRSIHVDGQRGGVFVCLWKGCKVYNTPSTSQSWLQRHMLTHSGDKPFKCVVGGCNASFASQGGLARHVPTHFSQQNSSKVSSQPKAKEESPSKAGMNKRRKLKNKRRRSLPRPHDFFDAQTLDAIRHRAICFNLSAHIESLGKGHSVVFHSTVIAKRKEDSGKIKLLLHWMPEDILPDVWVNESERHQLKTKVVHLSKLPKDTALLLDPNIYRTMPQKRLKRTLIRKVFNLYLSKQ
Chain of purified human, His-tagged PRC2 complex (Q09028 whole entry partner): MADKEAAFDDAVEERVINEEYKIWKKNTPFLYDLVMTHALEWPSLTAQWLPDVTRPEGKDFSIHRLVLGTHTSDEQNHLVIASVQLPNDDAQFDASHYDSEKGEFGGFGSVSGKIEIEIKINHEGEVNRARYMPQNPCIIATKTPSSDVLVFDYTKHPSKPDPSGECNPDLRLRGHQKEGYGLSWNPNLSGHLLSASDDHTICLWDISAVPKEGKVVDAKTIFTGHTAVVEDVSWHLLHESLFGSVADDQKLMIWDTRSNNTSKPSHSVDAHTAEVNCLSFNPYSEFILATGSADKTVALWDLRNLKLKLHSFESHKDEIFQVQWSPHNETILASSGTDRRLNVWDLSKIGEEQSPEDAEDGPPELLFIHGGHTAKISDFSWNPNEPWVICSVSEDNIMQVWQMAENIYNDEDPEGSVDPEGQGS

| Compound | IC50 [1] [nM] | IC50 [2] [nM] | IC50 (Karpas 422 cells) [nM] |
| --- | --- | --- | --- |
| N#Cc1cn2c(NCc3c(F)ccc4c3CCO4)ncc(-c3ccc(CN4CCCC4=O)cc3)c2n1 [Example 49, 5-(((5-fluoro-2,3-dihydrobenzofuran-4-yl)methyl)amino)-8-(4-((2-oxopyrrolidin-1-yl)methyl)phenyl)imidazo[1,2-c]pyrimidine-2-carbonitrile] | 100 to 500 | < 100 | ≤ 250 |
| COC1CN(Cc2ccc(-c3cnc(NCc4c(F)ccc5c4CCO5)n4cc(C#N)nc34)cc2)C1 [Example 50, 5-(((5-fluoro-2,3-dihydrobenzofuran-4-yl)methyl)amino)-8-(4-((3-methoxyazetidin-1-yl)methyl)phenyl)imidazo[1,2-c]pyrimidine-2-carbonitrile] | 100 to 500 | < 100 | ≤ 250 |
| CN(C)CCOc1ccc(-c2cnc(NCc3c(F)ccc4c3CCO4)n3cc(C#N)nc23)cc1 [Example 189, 8-(4-(2-(dimethylamino)ethoxy)phenyl)-5-(((5-fluoro-2,3-dihydrobenzofuran-4-yl)methyl)amino)imidazo[1,2-c]pyrimidine-2-carbonitrile] | 100 to 500 | 100 to 500 | ≤ 250 |
| N#Cc1cn2c(NCc3c(F)ccc4c3CCO4)ncc(-c3ccc4c(c3)CCNC4=O)c2n1 [Example 172, 5-(((5-fluoro-2,3-dihydrobenzofuran-4-yl)methyl)amino)-8-(1-oxo-1,2,3,4-tetrahydroisoquinolin-6-yl)imidazo[1,2-c]pyrimidine-2-carbonitrile] | 100 to 500 | < 100 | 250 to 500 |
| N#Cc1cn2c(NCc3c(F)ccc4c3CCO4)ncc(-c3cnccn3)c2n1 [Example 68, 5-(((5-fluoro-2,3-dihydrobenzofuran-4-yl)methyl)amino)-8-(pyrazin-2-yl)imidazo[1,2-c]pyrimidine-2-carbonitrile] | 100 to 500 | < 100 | ≤ 250 |
| CN(C)S(=O)(=O)c1ccc(-c2cnc(NCc3c(F)ccc4c3CCO4)n3cc(C#N)nc23)cc1 [Example 58, 4-(2-cyano-5-(((5-fluoro-2,3-dihydrobenzofuran-4-yl)methyl)amino)imidazo[1,2-c]pyrimidin-8-yl)-N,N-dimethylbenzenesulfonamide] | 100 to 500 | < 100 | ≤ 250 |
| N#Cc1cn2c(NCc3c(F)ccc4c3CCO4)ncc(-c3ccc(C(=O)O)nc3)c2n1 [Example 215, 5-(2-cyano-5-(((5-fluoro-2,3-dihydrobenzofuran-4-yl)methyl)amino)imidazo[1,2-c]pyrimidin-8-yl)picolinic acid] | > 500 | < 100 | > 500 |
| N#Cc1cn2c(NCc3c(F)ccc4c3CCO4)ncc(-c3ccc4c(c3)CCNC4)c2n1 [Example 203, 5-(((5-fluoro-2,3-dihydrobenzofuran-4-yl)methyl)amino)-8-(1,2,3,4-tetrahydroisoquinolin-6-yl)imidazo[1,2-c]pyrimidine-2-carbonitrile] | 100 to 500 | 100 to 500 | 250 to 500 |
| Cc1nc(-c2cnc(NCc3c(F)ccc4c3CCO4)n3cc(C#N)nc23)c(C)s1 [Example 145, 8-(2,5-dimethylthiazol-4-yl)-5-(((5-fluoro-2,3-dihydrobenzofuran-4-yl)methyl)amino)imidazo[1,2-c]pyrimidine-2-carbonitrile] | 100 to 500 | 100 to 500 | ≤ 250 |
| Cc1nn(C[C@@H](C)O)c(C)c1-c1cnc(NCc2c(F)ccc3c2CCO3)n2cc(C#N)nc12 [Example 66, (R)-5-(((5-fluoro-2,3-dihydrobenzofuran-4-yl)methyl)amino)-8-(1-(2-hydroxypropyl)-3,5-dimethyl-1H-pyrazol-4-yl)imidazo[1,2-c]pyrimidine-2-carbonitrile] | 100 to 500 | 100 to 500 | ≤ 250 |
| Cc1cc(-c2cnc(NCc3c(F)ccc4sccc34)n3cc(C#N)nc23)n(C)n1 [Example 81, 8-(1,3-dimethyl-1H-pyrazol-5-yl)-5-(((5-fluorobenzo[b]thiophen-4-yl)methyl)amino)imidazo[1,2-c]pyrimidine-2-carbonitrile] | > 500 | > 500 | > 500 |
| N#Cc1cn2c(NCc3c(F)ccc4c3CCO4)ncc(-c3ccc(C(=O)O)cc3)c2n1 [Example 183, 4-(2-cyano-5-(((5-fluoro-2,3-dihydrobenzofuran-4-yl)methyl)amino)imidazo[1,2-c]pyrimidin-8-yl)benzoic acid] | > 500 | < 100 | > 500 |

Next, values leading:

| IC50 [1] [nM] | IC50 [2] [nM] | IC50 (Karpas 422 cells) [nM] | Compound |
| --- | --- | --- | --- |
| 100 to 500 | 100 to 500 | 250 to 500 | N#Cc1cn2c(NCc3c(F)ccc4c3CCO4)ncc(-c3ccn(CC4CCCO4)n3)c2n1 (stereo not drawn) [Example 153, 5-(((5-fluoro-2,3-dihydrobenzofuran-4-yl)methyl)amino)-8-(1-((tetrahydrofuran-2-yl)methyl)-1H-pyrazol-3-yl)imidazo[1,2-c]pyrimidine-2-carbonitrile] |
| ≤ 100 | 100 to 500 | ≤ 250 | Cc1cc(CN(C)C)ccc1-c1cnc(NCc2c(F)ccc3c2CCO3)n2cc(C#N)nc12 [Example 32, 8-(4-((dimethylamino)methyl)-2-methylphenyl)-5-(((5-fluoro-2,3-dihydrobenzofuran-4-yl)methyl)amino)imidazo[1,2-c]pyrimidine-2-carbonitrile] |
| ≤ 100 | < 100 | ≤ 250 | [2H]C([2H])([2H])N(Cc1ccc(-c2cnc(NCc3c(F)ccc4c3CCO4)n3cc(C#N)nc23)c(C)c1)C([2H])([2H])[2H] [Example 202, 8-(4-((bis(methyl-d3)amino)methyl)-2-methylphenyl)-5-(((5-fluoro-2,3-dlhydrobenzofuran-4-yl)methyl)amino)imidazo[1,2-c]pyrimidine-2-carbonitrile] |
| ≤ 100 | < 100 | ≤ 250 | Cn1nc(C#N)cc1-c1cnc(NCc2c(F)ccc3c2CCO3)n2cc(C#N)nc12 [Example 212, 8-(3-cyano-1-methyl-1H-pyrazol-5-yl)-5-(((5-fluoro-2,3-dihydrobenzofuran-4-yl)methyl)amino)imidazo[1,2-c]pyrimidine-2-carbonitrile] |
| ≤ 100 | 100 to 500 | ≤ 250 | N#Cc1cn2c(NCc3c(F)ccc4c3CCO4)ncc(-c3ccc4c(c3)CNC4)c2n1 [Example 205, 5-(((5-fluoro-2,3-dihydrobenzofuran-4-yl)methyl)amino)-8-(isoindolin-5-yl)imidazo[1,2-c]pyrimidine-2-carbonitrile] |
| ≤ 100 | < 100 | ≤ 250 | Cc1cc(CN(C)C)ccc1-c1cnc(NCc2c(F)ccc3c2C(O)CO3)n2cc(C#N)nc12 (stereo not drawn) [Example 207, 8-(4-((dimethylamino)methyl)-2-methylphenyl)-5-(((5-fluoro-3-hydroxy-2,3-dihydrobenzofuran-4-yl)methyl)amino)imidazo[1,2-c]pyrimidine-2-carbonitrile] |
